# Experiments:
# [1] = target: T1, human LPA1 (Homo sapiens, UniProt Q92633); test: In vitro LPA1 functional antagonist assay (calcium mobilization, FLIPR); assay type: cell-based; conditions: CHO-K1 cells overexpressing human LPA1; Oleoyl LPA challenge; calcium mobilization on FLIPR Tetra
# T1 construct: expressed in transfected cells; host or cells: CHO-K1
# Procedure: In Vitro LPA1 Functional Antagonist Assay
# CHO-K1 cells overexpressing human LPA1 were seeded in a total volume of 20 μL into black-walled, clear-bottom, Poly-D-lysine coated 384-well microplates and incubated at 37° C. for the appropriate time prior to testing. Assays were performed in 1× Dye Loading Buffer consisting of 1× Dye, 1× Additive A and 2.5 mM Probenecid in HBSS/20 mM Hepes. Probenicid was prepared fresh. Cells were loaded with dye prior to testing. Media was aspirated from cells and replaced with […] Dye Loading Buffer. Cells were incubated for 30-60 minutes at 37° C. After dye loading, cells were removed from the incubator and 10 μL 3× test compound was added. Cells were incubated for 30 minutes at room temperature in the dark to equilibrate plate temperature followed by Oleoyl LPA challenge at the 0.018 M. Compound antagonist activity was measured on a FLIPR Tetra (MDS). Calcium mobilization was monitored for 2 minutes and 10 μL Oleoyl LPA in HBSS/20 mM Hepes was added to the cells 5 seconds into the assay. Compound activity was analyzed using CBIS data analysis suite (ChemInnovation, CA). Percentage inhibition is calculated using the following formula:
# % Inhibition=100%×(1−(mean RFU of test sample−mean RFU of vehicle control)/(mean RFU of LPA control−mean RFU of vehicle control)).
# [2] = target: T1, human LPA1; test: In vitro LPA1 calcium flux antagonist assay, Bioduro protocol; assay type: cell-based; conditions: CHO-K1 cells overexpressing human LPA1 and G15a; LPA challenge at EC80; calcium mobilization on FLIPR Tetra; read-out: IC50 (nM) in Assay B2
# Procedure: In Vitro LPA1 Calcium Flux Antagonist Assay Bioduro Protocol
# CHO-K1 cells overexpressing human LPA1 and G15a were seeded at a total volume of 20 uL (15000 cells/well) into Matrigel pre-coated 384-well plates (coming -3764) and incubated at 37° C. After overnight incubation, the cells were serum starved for 4 h. Assays were performed in dye loading buffer containing 1× Fluo-8 AM (AAT Bioquest, 21080) and 2.5 mM probenecid (Thermo Fisher, 36400) in HBSS/20 mM Hepes. After cell starvation, the medium was replaced with 20 uL of dye loading buffer and incubated at 37° C. for 30 min. Then 5 uL of 5× compound titrated in dye loading buffer was added to the cells and incubated for 30 min followed by LPA challenge at EC80. Calcium mobilization was measured on a FLIPR Tetra (MDS). For LPA EC80 determination, starved cells were incubated with 20 uL of dye loading buffer for 1 h, then 5 uL of 5×LPA titrated in dye loading buffer was added to the cells. Calcium signals induced by LPA was monitors on a FLIPR.
# Percentage inhibition is calculated using the following formula:
# % Inhibition=100%×(1−(mean RFU of test sample−mean RFU of DMSO)/(mean RFU of LPA control−mean RFU of DMSO)).
# T1 sequence (Q92633 whole entry): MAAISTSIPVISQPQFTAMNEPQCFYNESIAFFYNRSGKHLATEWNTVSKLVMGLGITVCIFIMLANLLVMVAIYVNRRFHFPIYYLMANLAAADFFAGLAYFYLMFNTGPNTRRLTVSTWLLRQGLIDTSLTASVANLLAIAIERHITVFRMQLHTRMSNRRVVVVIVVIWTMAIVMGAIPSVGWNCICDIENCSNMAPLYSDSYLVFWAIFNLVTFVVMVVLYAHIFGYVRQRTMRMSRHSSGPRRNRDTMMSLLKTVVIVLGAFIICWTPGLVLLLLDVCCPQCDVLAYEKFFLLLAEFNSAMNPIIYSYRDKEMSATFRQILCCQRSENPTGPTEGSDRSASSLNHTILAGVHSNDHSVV
SMILES,IC50 [1] [nM],IC50 [2] [nM]
Cc1ccc([C@@H](O)[C@H](Cn2cc3cccc(C(=O)O)c3n2)OC2CCCC2)cn1 [Compound 127a],> 10000,–
"COc1cc([C@@H](O)[C@H](Cc2nc3cc(C(=O)O)ccc3n2C)OCC2CCC2)cc(OC)c1C [Compound 119a, 2-[(2S,3R)-2-(cyclobutylmethoxy)-3-(3,5-dimethoxy-4-methyl-phenyl)-3-hydroxy-propyl]-1-methyl-benzimidazole-5-carboxylic acid]",> 10000,–
O=C(O)c1cccc2cn(C[C@H](OC3CCCC3)[C@@H](O)c3ccccc3)nc12 [Compound 137],> 10000,–
O=C(O)c1cccc2cn(C[C@H](OC3CCCC3)[C@H](O)c3ccc(C(F)(F)F)cc3)nc12 [Compound 124a],5700,–
"COc1cc(C(O)C(Cn2ncc3cccc(C(=O)O)c32)OCCc2ccccc2)cc(OC)c1C (stereo not drawn) [Compound 107, 1-(3-(3,5-dimethoxy-4-methylphenyl)-3-hydroxy-2-phenethoxypropyl)-1H-indazole-7-carboxylic acid]",> 10000,–
COc1cc([C@@H](O)[C@H](Cn2cc3cccc(C(=O)O)c3n2)OC2CCCC2)ccc1F [Compound 139],1350,–
COc1cc([C@@H](O)[C@H](Cc2ccn(CC(=O)O)n2)OC2CCCC2)cc(OC)c1C [Compound 116a],1470,–
COc1cc([C@@H](O)[C@H](Cn2cc3cccc(C(=O)O)c3n2)OC2CCCCC2)cc(OC)c1C [Compound 140],11.8,–
COc1cc([C@@H](O)[C@H](Cn2cc3cccc(C(=O)O)c3n2)OC2CCCC2)ccc1C(F)F [Compound 121a],11.2,–
"COC(=O)c1cn(C[C@H](OC2CCCC2)[C@H](O)c2cc(OC)c(C)c(OC)c2)cc1CC(=O)O [Compound 102a, 2-(1-((2S,3R)-2-(cyclopentyloxy)-3-(3,5-dimethoxy-4-methylphenyl)-3-hydroxypropyl)-4-(methoxycarbonyl)-1H-pyrrol-3-yl)acetic acid]",14.5,–
O=C(O)c1cccc2cn(C[C@H](OC3CCCC3)[C@H](O)c3ccc(C(F)F)cc3)nc12 [Compound 128a],207,–
COc1cc([C@H](O)[C@H](Cn2cc3cccc(C(N)=O)c3n2)OC2CCCC2)ccc1F [Compound 135],> 10000,–
COc1cc([C@@H](O)[C@H](Cn2cc3cccc(C(=O)O)c3n2)OC2CCCC2)ccc1C1CC1 [Compound 125a],80.7,–
"COc1cc([C@@H](O)[C@H](Cc2nc3cc(C(=O)O)ccc3[nH]2)OC2CCCC2)cc(OC)c1C [Compound 109a, 2-((2S,3R)-2-(cyclopentyloxy)-3-(3,5-dimethoxy-4-methylphenyl)-3-hydroxypropyl)-1H-benzo[d]imidazole-5-carboxylic acid]",> 10000,–
"COc1cc([C@@H](O)[C@H](Cn2cc3cccc(C(=O)O)c3n2)OC2Cc3ccccc3C2)cc(OC)c1C [Compound 113a, 2-((2S, 3R)-2-((2,3-dihydro-1H-inden-2-yl)oxy)-3-(3,5-dimethoxy-4-methylphenyl)-3-hydroxypropyl)-2H-indazole-7-carboxylic acid]",3.69,–
"COc1cc([C@@H](O)[C@H](Cc2nc3cc(C(=O)O)ccc3[nH]2)OC2Cc3ccccc3C2)cc(OC)c1C [Compound 114a, 2-((2S, 3R)-2-((2,3-dihydro-1H-inden-2-yl)oxy)-3-(3,5-dimethoxy-4-methylphenyl)-3-hydroxypropyl)-1H-benzo[d]imidazole-5-carboxylic acid]",125,–
COc1cc([C@@H](O)[C@H](Cc2nc(CC(=O)O)cs2)OCC2CCC2)cc(OC)c1C [Compound 122a],1450,–
COc1cc([C@@H](O)[C@H](Cn2cc3cc(C)cc(C(=O)O)c3n2)OC2CCCC2)cc(OC)c1C [Compound 161],–,6.28
COc1cc([C@@H](O)[C@H](Cn2cc3nccc(C(=O)O)c3n2)OC2CCCC2)ccc1C(F)F [Compound 189],–,454
COc1cc([C@@H](O)[C@H](Cc2nc3c(C(=O)O)cncc3s2)OC2CCCC2)cc(OC)c1C [Compound 176],–,9.95
COc1cc([C@@H](O)[C@H](Cc2cc3c(OC)ccc(C(=O)O)n3n2)OC2Cc3ccccc3C2)cc(OC)c1C [Compound 276],–,5
COc1cc([C@@H](O)[C@H](Cc2cc3cc(C4CC4)cc(C(=O)O)n3n2)OCC(C)C)cc(OC)c1C [Compound 242],–,7.5
COc1cc(C(=O)O)c2nc(C[C@H](OC3Cc4ccccc4C3)[C@H](O)c3cc(OC)c(C)c(OC)c3)sc2c1 [Compound 274],–,3.71
COc1cc([C@@H](O)[C@H](Cn2cc3cc(CNC(C)=O)cc(C(=O)O)c3n2)OC2CCCC2)cc(OC)c1C [Compound 220],–,106
"COc1cc([C@@H](O)[C@H](Cc2nc3c(C(=O)O)cc(C)cc3s2)OCC(C)C)cc(OC)c1C [Compound 234, 2-((2S,3R)-3-(3,5-dimethoxy-4-methylphenyl)-3-hydroxy-2-isobutoxypropyl)-6-methylbenzo[d]thiazole-4-carboxylic acid]",–,3.71

# The next lines start with the values.
IC50 [1] [nM],IC50 [2] [nM],SMILES
1650,–,"COc1cc([C@@H](O)[C@H](Cc2ccc(CC(=O)O)c(OC)n2)OC2CCCC2)cc(OC)c1C [Compound 110a, 2-(6-((2S,3R)-2-(cyclopentyloxy)-3-(3,5-dimethoxy-4-methylphenyl)-3-hydroxypropyl)-2-methoxypyridin-3-yl)acetic acid]"
> 10000,–,"COc1cc([C@@H](O)[C@H](Cc2nc3cc(CC(=O)O)ccc3n2C)OCC2CCC2)cc(OC)c1C [Compound 120a, 2-[2-[(2S,3R)-2-(cyclobutylmethoxy)-3-(3,5-dimethoxy-4-methyl-phenyl)-3-hydroxy-propyl]-1-methyl-benzimidazol-5-yl]acetic acid]"
1190,–,"COc1cc([C@@H](O)[C@H](Cc2ccc(CC(=O)O)c(OC)n2)OCCc2ccccc2)cc(OC)c1C [Compound 130a, 2-(6-((2S,3R)-3-(3,5-dimethoxy-4-methylphenyl)-3-hydroxy-2-phenethoxypropyl)-2-methoxypyridin-3-yl)acetic acid]"
3.38,–,"COc1cc([C@@H](O)[C@H](Cc2nc(CC(=O)O)cs2)OC2Cc3ccccc3C2)cc(OC)c1C [Compound 129a, 2-(2-((2S,3R)-2-((2,3-dihydro-1H-inden-2-yl)oxy)-3-(3,5-dimethoxy-4-methylphenyl)-3-hydroxypropyl)thiazol-4-yl)acetic acid]"
213,–,"CC#CCCO[C@@H](Cn1cc(CC(=O)O)c(C(=O)OC)c1)[C@H](O)c1cc(OC)c(C)c(OC)c1 [Compound 101a, 2-(1-((2S,3R)-3-(3,5-dimethoxy-4-methylphenyl)-3-hydroxy-2-(pent-3-yn-1-yloxy)propyl)-4-(methoxycarbonyl)-1H-pyrrol-3-yl)acetic acid]"
30.8,–,"COc1cc([C@@H](O)[C@H](Cc2nc3cc(CC(=O)O)ccc3[nH]2)OC2Cc3ccccc3C2)cc(OC)c1C [Compound 115a, 2-[2-[(2S,3R)-3-(3,5-dimethoxy-4-methyl-phenyl)-3-hydroxy-2-indan-2-yloxy-propyl]-1H-benzimidazol-5-yl]acetic acid]"
64.8,–,"COc1cc([C@@H](O)[C@H](Cn2cc3cccc(C(=O)O)c3n2)OC2CCCC2)ccc1Cl [Compound 126a, 2-((2S,3R)-3-(4-chloro-3-methoxyphenyl)-2-(cyclopentyloxy)-3-hydroxypropyl)-2H-indazole-7-carboxylic acid]"
> 10000,–,O=C(O)c1cccc2cn(C[C@H](OC3CCCC3)[C@H](O)c3ccccc3)nc12 [Compound 136]
–,299,COc1cc([C@@H](O)[C@H](Cn2cc3cccc(C(=O)O)c3n2)OC2CCC(F)(F)CC2)cc(OC)c1C [Compound 149]
–,9.18,COc1cc(C(=O)O)c2nc(C[C@H](OCC(C)C)[C@H](O)c3cc(OC)c(C)c(OC)c3)sc2c1 [Compound 236]
–,> 10000,COc1cc(C(=O)O)c2nc(C[C@@H](OC3CCCC3)[C@@H](O)c3cc(OC)c(C)c(OC)c3)sc2c1 [Compound 284]
–,20.4,CCCc1cc(C(=O)O)c2nn(C[C@H](OC3CCCC3)[C@H](O)c3cc(OC)c(C)c(OC)c3)cc2n1 [Compound 219]
–,6.87,COc1cc([C@@H](O)[C@H](Cn2cc3nc(Cl)cc(C(=O)O)c3n2)OC2CCCC2)cc(OC)c1C [Compound 198]
–,≥ 10000,COc1cc([C@@H](O)[C@H](Cn2cc3cccc(C(=O)NS(C)(=O)=O)c3n2)OC2CCCC2)cc(OC)c1C [Compound 171]
